Experimental data published in paper PMC8241751, “Influence of the Dabcyl group on the cellular uptake of cationic peptides: short oligoarginines as efficient cell-penetrating peptides” (Amino Acids, 2021).
Values belong to the molecule of their own block, whether it stands above or below them.

Experiments:
Type in all cases: cell-based, human
[1] = test system: HeLa cells; test: Confocal microscopy of internalisation into HeLa cells; conditions: 37 °C
Procedure: HeLa cells (2.0 × 10^5 cells) seeded in 35-mm glass-bottomed dishes (Iwaki) were cultured at a 37 °C incubator for 24 h. The cells were then incubated with peptide in α-MEM( +) and α-MEM(–) for 30 min at 37 °C or 4 °C. After washing with PBS( +) containing 0.5% (w/v) heparin, intracellular distribution of the fluorescently-labelled peptides was analysed without fixing using a confocal microscope (FV1000, Olympus). For time-lapse imaging, the cells were placed at 37 °C in a microchamber (MI-IBC-IF, Olympus) attached on the stage of the inverted microscope. The cells were then treated with 5 µM of Dabcyl–Arg6–Lys(Rh)–NH2 or Dabcyl–Arg4–Lys(Cf)–NH2 in α-MEM( +) or α-MEM(–). Time 0 represents the image immediately after the addition of conjugates.

[2] = test system: HeLa cells; test: Cellular uptake by flow cytometry on HeLa cells; conditions: 30 min; for Cellular uptake in the presence of serum: α-MEM(+), lowest studied concentration (2.5 μM)
Procedure: HeLa cells (8.0 × 10^4/well) in α-MEM( +) were cultured in 24-well microplates overnight at 37 °C. Cells were treated with fluorescently-labelled peptides (2.5, 5 and 10 μM) in α-MEM( +) and α-MEM without 10% BS [α-MEM(–)], respectively, for 30 min at 37 °C. After being washed with phosphate-buffered saline (PBS), cells were incubated with 0.01% trypsin in PBS for 10 min at 37 °C. The collected cells were then centrifuged at 800 g for 5 min at 4 °C, washed twice with PBS, and subjected to flow cytometry analysis (Attune NxT Flow Cytometer, ThermoFisher). Each sample was analysed over 10,000 events.

[3] = test system: HL-60 cells; test: In vitro cytostatic activity (MTT) on HL-60
Procedure: The cells (HL-60 or MCF-7) were grown to confluency and were plated into 96-well plate with initial cell number of 5 × 10^3 per well. After 24 h incubation at 37 °C, cells were treated with the compounds at 1.28 × 10^–3–100 μM concentration range for 3 h in 200 μL final volume. Control cells were treated with serum free medium at 37 °C for 3 h. After incubation the cells were washed twice with serum free medium. For the analysis of the in vitro cytostatic effect, cells were cultured for an additional 72 h in serum containing medium. On day 4, MTT assay was carried out to determine the IC50 values of the compounds. Briefly, 45 μL of MTT solution was added to each well (2 mg/mL, dissolved in serum-free medium). Following the 4 h incubation, plates were centrifuged at 900 g for 5 min, and the supernatant was removed. The precipitated purple crystals were dissolved in 100 μL DMSO and the absorbance was determined at λ = 540 nm and λ = 620 nm using ELISA plate reader (iEMSReader, Labsystems, Finland). The percent of cytostasis was calculated using the following equation: Cytostatic effect (%) = [1 − (ODtreated/ODcontrol)] × 100; where ODtreated and ODcontrol correspond to the optical densities of the treated and the untreated control cells, respectively. In each case three independent experiments were carried out with four parallel measurements. […] The curves were defined using MicrocalTM Origin (version 9.2) software: cytostasis was plotted as a function of concentration, fitted to a sigmoidal curve, and based on this curve, the IC50 value was determined.

Cellular uptake in the presence of serum [2]: undetectable
Molecule: Ac–RRRRRRK(Rh)–NH2 [Ac–Arg6–Lys(Rh)–NH2, acetylated hexaarginine with carboxytetramethylrhodamine on lysine]
Intracellular distribution ([1]; α-MEM(–), 5 and 10 μM, 30 min): punctate distribution

Molecule: CN(C)c1ccc(C(=O)N[C@@H](CCCNC(=N)N)C(=O)N[C@@H](CCCNC(=N)N)C(=O)N[C@@H](CCCNC(=N)N)C(=O)N[C@@H](CCCNC(=N)N)C(=O)N[C@@H](CCCNC(=N)N)C(=O)N[C@@H](CCCNC(=N)N)C(=O)N[C@@H](CCCCNC(=O)c2ccc3c(c2)C(=O)OC32c3ccc(O)cc3Oc3cc(O)ccc32)C(N)=O)cc1 [Dmab–Arg6–Lys(Cf)–NH2]
Effect on the cell viability (morphology, number of cells) ([1]; 1-20 μM, confocal microscopy): no effect on the cell viability

Morphology of the cells ([1]; α-MEM(–), 5 and 10 μM, 30 min, cell number also decreased): dramatically changed
Internalisation in the absence of serum compared to serum (+) ([2]; 2.5 µM, 37 °C): twice
Cellular uptake, times higher than hexaarginine's ([2]; absence of serum, 2.5 µM, 37 °C): 3 times
Cellular uptake in the presence of serum [2]: markedly pronounced
Molecule: Dabcyl–RRRRRRK(Rh)–NH2 [Dabcyl–Arg6–Lys(Rh)–NH2, Dabcyl-modified hexaarginine with carboxytetramethylrhodamine on lysine]
Time needed to get well detectable signal with diffuse cytosolic distribution ([1]; 5 μM, α-MEM(+), time-lapse imaging): 25 min
Threshold concentration above which distribution becomes diffuse ([1]; 30 min, confocal microscopy): under 5 μM
Intracellular distribution ([1]; α-MEM(+) with serum, 10 µM, 30 min): diffuse cytosolic localisation
Intracellular distribution ([1]; α-MEM(–), 2.5 μM, 30 min): diffuse distribution pattern

Molecule: CN(C)c1ccc(/N=N/c2ccc(C(=O)N[C@@H](CCCNC(=N)N)C(=O)N[C@@H](CCCNC(=N)N)C(=O)N[C@@H](CCCNC(=N)N)C(=O)N[C@@H](CCCNC(=N)N)C(=O)N[C@@H](CCCNC(=N)N)C(=O)N[C@@H](CCCNC(=N)N)C(=O)N[C@@H](CCCCN)C(N)=O)cc2)cc1 [Dabcyl–Arg6–Lys–NH2]
IC50 ([3]; HL-60, 3 h incubation, then 3 days in serum-containing medium, MTT assay, ± sd, three independent experiments with four parallels): > 100 µM
Cytostatic effect on HL-60 cells ([3]; up to c = 100 μM): no cytostatic effect
